Measured values as given in patent publication US6605115B1, “Method and composition for inhibiting cardiovascular cell proliferation” (Board of Trustees of the Leland Stanford Junior University, priority 1999, dated 2003).

What was measured:
[1] = tested on: vein graft segments; test: Ex vivo NOx production from vein graft harvested 3 days after surgery; assay type: in vivo, New Zealand white rabbits
Method: Vein grafts were harvested 3 days after surgery, as described in Example 7. Vein graft segments were incubated in 1 me of Hanks' buffered saline solution (HBSS, Irvine Scientific) containing Ca^2+ (1.0 mM) and L-arginine (100 μM, Sigma) at 37° C. for 2 hours. NOx (nitrate and nitrite) production was measured either in the absence (basal) or presence (stimulated) of calcium ionophore (A23187, 10.0 μM, Sigma). Samples of the medium (80 μL) were collected, and NOx measurement was performed using the Griess reaction facilitated by a commercial calorimetric assay (Cayman Chemical).

[2] = tested on: cytokine-stimulated VSMC; test: Effect of arginine oligomers on NO production in cytokine-stimulated VSMC (NO2, Griess); assay type: cell-based, rat; conditions: exposure 5 minutes; observed for 24 hours; free L-arginine at 1 mM
[3] = tested on: cytokine-stimulated VSMC; test: as above; assay type: cell-based, rat
Method: Rat VSMCs were prepared from the media layer of thoracic aorta of Sprague-Dawley rats by the explant method. The cells were cultured in Dulbecco's modified Eagle's medium (DMEM, Gibco BRL, Gaithersburg, Md.) containing 10% fetal calf serum, 100 U/ml penicillin and 100 μg/ml streptomycin at 37° C. under a humidified atmosphere containing 5% CO2. After subconfluent growth, cells were cultured with MEM Select Amine Kit (Gibco BRL, Gaithersburg, Md.) to be treated by specific concentrations of extracellular free L-arginine. Experiments were performed using cultured cells at passage levels of 5-10.
Extracellular NO production was measured as its stable oxidative metabolite, nitrite (NO2). At the end of each incubation, samples of the medium (80 μl) were collected, and NO2 measurement was performed using the Griess reaction facilitated by a commercial calorimetric assay (Cayman Chemical, Ann Arbor, Mich.). Values of NO2 production were corrected with relative cell count assessed by a cell proliferation kit II (XTT) (Boeheringer Mannheim, Germany).
Subconfluent cells were pre-incubated with medium containing 100 μM arginine for 24 hours. The cells were then transiently pretreated with each arginine polymer for 30 minutes. After translocation, the cells were incubated with a mixture of IFN-γ (100 U/ml) and LPS (100 μg/ml) in medium containing 100 μM L-arginine for another 24 hours. In some experiments, L-NMMA (1 mM), a nitric oxide synthase inhibitor, was added to the medium.

[4] = tested on: rat vascular smooth muscle cells (VSMC); test: Translocation of biotin-labeled peptides into cultured VSMC (HRP-streptavidin/DAB staining); assay type: cell-based; conditions: for internalized biotin signal (staining): 30 minutes
Method: In the studies described below, transmembrane transport and cellular uptake of oligomers was assessed by incubating cells or tissue with biotin-oligomer conjugates, followed by treatment with horseradish peroxidase (HRP)-conjugated streptavidin and subsequent incubation with DAB (3,3′-diaminobenzidine), a substrate of the enzyme which produces a highly colored product.
Cultured VSMC (vascular smooth muscle cells) were treated, as described in Example 2, with biotinylated oligomers of arginine or lysine. After incubation, the cells were treated with HRP-streptavidin conjugate, then with DAB. Staining by the oxidation product was observed using light microscopy.
Rat VSMCs were grown on glass microscope slide chambers (Nunc Inc., Naperville, Ill.). Subconfluent cells were washed and placed in serum-free medium. After 2 hours, cells were treated with bR7, or bK7 (0.1 μM, 1.0 μM, 10 μM), at 37° C. for 30 minutes. To assess the role of endocytosis in cellular uptake of the peptides, experiments were performed at 4° C., and also in the presence of sodium azide (1.0%) for 30 minutes prior to exposure to the peptides. To assess the involvement of the basic amino acid transport system y+ in the translocation of peptides into the cell, experiments were performed in the presence of excess extracellular L-arginine (10 mM).
After 30 minutes of incubation with the peptides, cells were washed 3 times with phosphate-buffered saline (PBS), fixed for 5 minutes at −20° C. in ethanol/acetone, washed 3 times in PBS, incubated for 30 minutes with a peroxidase suppressor (ImmunoPure, Pierce, Rockford, Ill.) to block endogenous peroxidase activity and nonspecific binding, washed, and then incubated with 5 μg/ml of horseradish peroxidase (HRP) conjugated strepavidin (Pierce, Rockford, Ill.) for 30 minutes. Cells were washed 3 times with PBS, and a substrate of HRP, DAB (Sigma, St. Louis, […].), was added to the cells. The reaction was terminated by washing in distilled water after a 60-second incubation with DAB. Cell preparations were observed by conventional light microscopy (see FIG. 1). This experimental protocol was repeated 3 times.

[5] = tested on: rabbit carotid artery segment; test: Ex vivo translocation study, carotid artery segments; parameters: species or system New Zealand white rabbits
Method: After incubation with biotin labeled oligomer, vascular segments were washed, then frozen in OCT compound (Miles Scientific). Frozen sections, 5 μm thick, were fixed with acetone for 10 minutes. Internalized biotin was detected using the staining procedure described in Example 2. Methyl green was used for nuclear counter staining.
To quantify the efficiency of nuclear translocation, the numbers of both DAB positive nuclei and total nuclei were counted in the intima and media separately at ×400 magnification with a video image analysis system (Automatrix). The frequency of nuclear translocation was expressed as the percent staining of nuclei, defined as the ratio of the number of DAB positive nuclei to that of all nuclei, in the intima and media. Each protocol was repeated 4 times.
Both carotid artery and jugular vein segments of male New Zealand white rabbits were used. To test the dose dependence of R7 translocation, vascular segments were incubated for 30 minutes with either bL-R7 or bD-R7 solution (0.1, 1.0, and 10.0 μM) in serum-free Dulbecco's minimal essential medium (DMEM) (Gibco BRL). To test the incubation time dependence, vascular segments were incubated with 10.0 μM of biotin labeled R7 solution for 10 seconds, 60 seconds, 5 minutes, 10 minutes, and 30 minutes. Furthermore, to determine the ability of R7 to penetrate through the vessel wall, vascular segments were ligated one end, R7 containing medium was instilled, and the other end ligated so as to expose only the luminal surface to R7. The luminal surface of the vascular segment was exposed to bL-R7 or bD-R7 (10.0 μM) for 30 minutes. To test the temperature dependence of translocation, vascular segments were incubated with 10.0 μM of biotin labeled R7 solutions at 37° C. or 4° C. To determine the disappearance time course of translocated R7, vascular segments were incubated with biotin labeled R7 solutions (10.0 μM) at 37° C. for 30 minutes, and then reincubated in DMEM with 10% FBS up to 5 days. Vascular segments were harvested at 1, 2 and 5 days after initial incubation.

[6] = tested on: human umbilical vein endothelial cells (ECV304); test: In vitro translocation of biotin-labeled peptides into endothelial cells; assay type: cell-based; conditions: for internalized biotin: endothelial cells
Method: Spontaneously transformed human umbilical vein endothelial cells (ECV304, ATCC) were cultured in medium M199 (Irvine Scientific) containing 10% fetal bovine serum (FBS), 100 IU/ml penicillin and 100 μg/ml of streptomycin (Gibco BRL). Confluent cells were washed and placed in serum-free medium. After 2 hours, the cells were incubated in presence of biotin labeled peptides, as bL-R7, or bD-R7, or bL-K7 (0.1, 1.0, and 10.0 μM). After 30 minutes of incubation, cells were washed 3 times with phosphate-buffered saline (PBS), fixed in ethanol/acetone; washed in PBS; incubated for 30 minutes with peroxidase suppressor (ImmunoPure, Pierce) to block endogenous peroxidase activity; and then incubated with 5 μg/ml of horse-radish peroxidase (HRP) conjugated strepavidin (Pierce) for 30 minutes. Substrate of HRP, diaminobenzidine (DAB, Sigma), was added to the cells. The reaction was terminated by washing in distilled water after a 60-second incubation. This experiment was repeated 3 times.

[7] = tested on: vein grafts; test: Vein graft model: vessel morphometry 28 days after surgery; assay type: in vivo, New Zealand white rabbits
Method: Male New Zealand white rabbits (3.0-3.5 kg) fed standard diets were anesthetized with a mixture of ketamine (40 mg/kg) and xylazine (5 mg/kg) intramuscularly. The left external jugular vein was exposed through a longitudinal neck incision. The jugular vein was excised, gently flushed and immersed in PBS (control) or PBS containing either L-R7 (10.0 μM) or D-r7 (10.0 μM) for 30 minutes.
The right common carotid artery was exposed and clamped at the both proximal and distal ends. The treated vein segment was washed with PBS and then anastomosed in a reverse end-to-side fashion into the carotid artery, using continuous 8-0 polypropylene sutures. The common carotid artery was ligated and dissected between the two anastomoses, and the wound was closed with 3-0 nylon suture.
Vein graft segments were harvested on the 28th surgical day. Graft segments were fixed in 10% buffered formalin with gentle intraluminal pressure to maintain the physiological graft configuration. The middle portion of the paraffin samples were sectioned (5 μm) and stained with hematoxylin/eosin for light microscopic examination (FIGS. 8A-C). Three sections of each graft, taken at 0.5 mm intervals, were analyzed by planimetry by a observer blinded to the treatment group. The cross-sectional areas of the lumen, intima and media was digitized with the use of the Image Analyst program (Automatrix). The ratio of intima to media (I/M) area was calculated.

[8] = tested on: Rat aortic VSMC; test: VSMC proliferation assay (XTT); assay type: cell-based; conditions: 10.0 μM, 30 minutes, then growth medium 0.5% FBS for 48 hours; vs vehicle
Method: Rat aortic VSMC were grown to 50% confluence in 96-well cell culture plates. VSMC were then washed and incubated with serum free DMEM for 48 hours to obtain quiescent nondividing cells. Thereafter, VSMC were treated with vehicle, L-R7 (10.0 μM), or D-R7 (10.0 μM) for 30 minutes. After the treatment, cells were washed, and further incubated with serum containing DMEM (0.5%, FBS). Cells were harvested after 48 hours of incubation. Cell count was performed with commercial cell proliferation assay kit using spectrophotometer (XTT, Boehringer Mannheim). As a negative control, cells treated with vehicle and incubated with DSF were used. As an index of cell proliferation, the OD ratio of each treatment group to negative control group was calculated as an index of cell proliferation.

CNc1ccc2oc(C[C@H]3O[C@@]4(CC[C@H]3C)O[C@H]([C@H](C)C(=O)c3ccc[nH]3)[C@H](C)C[C@H]4C)nc2c1C(=O)O [Calcium ionophore, reference compound]
NOx production by the vein grafts on calcium ionophore stimulation ([1]; A23187, 10.0 μM): did not significantly affect the NOx production

N=C(N)NCCC[C@H](N)C(=O)O [L-arginine, reference compound]
NO biosynthesis after 5 minutes exposure [2]: did not significantly increase NO biosynthesis
elevation of NO production ([3]; R7 10 μM pretreatment, free L-arginine up to 1 mM): not observed

biotin-labeled heptaarginine [bR7]
internalized biotin signal (staining) ([4]; 0.1 μM): internalized biotin was observed in all VSMCs
internalized biotin signal (staining) ([4]; 10 μM, 37° C.): very intense staining, not only in the cytoplasm, but also in the nucleus of all VSMC
efficacy of translocation at 4° C. ([4]; 4° C.): no apparent reduction was observed in the efficacy of bR7 translocation
cytoplasmic and nuclear staining after sodium azide ([4]; cells exposed to 1% sodium azide for 30 minutes prior to incubation): neither cytoplasmic nor nuclear staining was observed
translocation in presence of free L-arginine ([4]; free L-arginine up to 10 mM added): Nor was translocation of bR7 inhibited
speed or efficacy of translocation into vascular tissue at 4° C. ([5]; 10.0 μM, 4° C.): no apparent reduction in the speed or efficacy
biotin signals after intraluminal instillation ([5]; 10.0 μM, 30 minutes of intraluminal exposure): biotin signals were detected throughout the vessel, including the adventitial cells
biotin signal in vascular cells ([5]; carotid artery, 10.0 μM, 30 minutes): a distinct biotin signal was observed in virtually all intimal cells, medial cells, and adventitial cells
biotin staining by day 5 ([5]; day 5 after exposure (10.0 μM), serum containing medium): No significant positive staining
internalized biotin ([6]; 0.1 μM): internalized biotin was observed in the cytoplasm of all EC
internalized biotin ([6]; 10.0 μM for 30 minutes): internalized biotin was detected not only in the cytoplasm but also in the nucleus of virtually all exposed endothelial cells

hepta-D-arginine [D-r7]
myointima formation [7]: substantially less myointima formation
intima/media ratio (I/M) ([7]; 10.0 μM): 0.8±0.2
intimal area ([7]; 10.0 μM, 30 minutes immersion): 1.1±0.4 mm^2
reduction of intimal area ([7]; 10.0 μM, vs control): about 35%
Basal NOx production ([1]; vein grafts harvested after 3 days, absence of calcium ionophore): 48±8 nM/mg tissue/hr
NO production ([3]; 100 μM, 30 minutes): did not increase the NO production
VSMC proliferation [8]: significantly inhibited
translocation across cytoplasmic and nuclear membranes ([6]; VSMC and endothelial cells in culture): very efficient at translocating across both cytoplasmic and nuclear membranes
